The target of experiment [1] is T1, FXIIIa (Homo sapiens, UniProt P00488).
T1 construct: purchased Zedira GmbH (Darmstadt, Germany)
T1 sequence (P00488 39-732 limits assumed): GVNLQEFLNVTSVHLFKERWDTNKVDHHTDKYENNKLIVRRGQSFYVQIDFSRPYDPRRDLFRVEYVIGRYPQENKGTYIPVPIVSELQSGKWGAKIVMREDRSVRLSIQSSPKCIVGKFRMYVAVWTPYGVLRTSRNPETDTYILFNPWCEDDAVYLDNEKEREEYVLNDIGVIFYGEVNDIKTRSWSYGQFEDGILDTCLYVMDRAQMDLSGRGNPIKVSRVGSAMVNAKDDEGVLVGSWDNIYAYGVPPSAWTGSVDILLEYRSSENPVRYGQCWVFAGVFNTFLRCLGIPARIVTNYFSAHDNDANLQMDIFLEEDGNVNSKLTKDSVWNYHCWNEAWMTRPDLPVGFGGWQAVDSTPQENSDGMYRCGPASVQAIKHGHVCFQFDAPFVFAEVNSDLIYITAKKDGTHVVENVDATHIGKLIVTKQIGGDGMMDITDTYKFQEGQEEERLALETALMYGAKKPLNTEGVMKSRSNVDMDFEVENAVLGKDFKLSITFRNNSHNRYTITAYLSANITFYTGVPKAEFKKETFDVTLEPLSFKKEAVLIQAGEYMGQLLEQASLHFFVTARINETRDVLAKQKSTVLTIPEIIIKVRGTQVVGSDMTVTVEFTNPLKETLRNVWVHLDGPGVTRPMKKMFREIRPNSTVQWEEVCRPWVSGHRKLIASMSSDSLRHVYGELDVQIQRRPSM
The experiment can be described thus: TGase isozyme selectivity, FXIIIa with A101 substrate. The note with it: [I]/α identical to that of the TG2 assay. Format: biochemical. The text has this:
(§1) In the development of probes for TGases, isozyme selectivity is always a significant challenge. Since the catalytic machinery of the active sites of all TGases features a conserved Gly-Gln-Cys-Trp-Val sequence, selectivity for one isozyme over the others requires exploitation of slight differences in the protein substrate binding sites. In order to assess the isozyme selectivity of our cell-impermeable inhibitors, TG2 and four other therapeutically relevant TGases (Factor XIII, TG1, TG3, and TG6) were exposed to a concentration of inhibitor representing the same apparent competition with respect to the assay substrate (AL5 [38] or A101 [42, 43]). In other words, both the substrate and inhibitor concentrations were varied so that the [I]/α values were identical. […] This provides confidence that in further applications, these cell-impermeable inhibitors will selectively target TG2 over other transglutaminases.
(§2) To monitor the activity of TG3a and TG6, a FRET-quenched substrate A101 (Zedira Gmbh) was used. […] The isopeptidase activity of the respective TGase was then monitored at Ex/Em = 313/418 nm with a BioTek Synergy 4 plate reader at 25 °C. […]

In experiment [2] the target is T2, TG3a (Homo sapiens, UniProt Q08188).
T2 construct: purchased Zedira GmbH (Darmstadt, Germany)
T2 sequence (Q08188 2-467 limits assumed): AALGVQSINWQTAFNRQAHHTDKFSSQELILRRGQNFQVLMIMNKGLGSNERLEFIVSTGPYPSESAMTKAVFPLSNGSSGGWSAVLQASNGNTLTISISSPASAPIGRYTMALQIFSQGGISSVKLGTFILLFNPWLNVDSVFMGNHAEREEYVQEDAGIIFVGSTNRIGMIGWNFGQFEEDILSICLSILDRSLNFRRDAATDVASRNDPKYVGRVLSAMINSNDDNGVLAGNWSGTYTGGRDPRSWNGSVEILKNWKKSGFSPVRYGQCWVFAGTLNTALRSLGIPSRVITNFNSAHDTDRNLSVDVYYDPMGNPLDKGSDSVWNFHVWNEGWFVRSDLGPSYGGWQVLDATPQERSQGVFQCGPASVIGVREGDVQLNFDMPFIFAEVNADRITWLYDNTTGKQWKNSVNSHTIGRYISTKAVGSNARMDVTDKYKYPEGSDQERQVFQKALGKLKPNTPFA
T2 sequence (Q08188 468-693 partner limits assumed): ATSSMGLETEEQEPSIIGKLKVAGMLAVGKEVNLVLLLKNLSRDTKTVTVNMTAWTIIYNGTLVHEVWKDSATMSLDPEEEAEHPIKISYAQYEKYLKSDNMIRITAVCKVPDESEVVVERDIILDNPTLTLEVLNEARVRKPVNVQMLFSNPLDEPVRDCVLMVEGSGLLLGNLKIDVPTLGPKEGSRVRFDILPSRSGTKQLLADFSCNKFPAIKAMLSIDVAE
The experiment can be described thus: TGase isozyme selectivity, TG3a with A101 substrate. The following applies: [I]/α identical to that of the TG2 assay. The class given is biochemical.
Text: as §1, §2

Molecules are shown by their SMILES. Peptide text beside a SMILES is read from it. * marks the point of attachment. X1 = C=CC(=O)NCCCCC(NC(=O)OCc1ccccc1)C(=O)N1CCN(C(=O)C(CCC(=O)*)NC(=O)c2cccc3ccccc23)CC1

Take `C=CC(=O)NCCCCC(NC(=O)OCc1ccccc1)C(=O)N1CCN(C(=O)C(CCC(=O)NCC(=O)NCC(=O)NCC(=O)NC(CC(=O)O)C(=O)NC(CC(=O)O)C(=O)NC(CC(=O)O)C(=O)O)NC(=O)c2cccc3ccccc23)CC1` (stereo not shown) [Compound 18] (X1-GGGDDD-OH; configuration not given here): in experiment [1], the “inhibition of Factor XIII” value is “no detectable inhibition”. In addition, the “inhibition of TG3” value in experiment [2] is reported as “no detectable inhibition”.

As for `C=CC(=O)NCCCCC(NC(=O)OCc1ccccc1)C(=O)N1CCN(C(=O)C(CCC(=O)NCCCCCC(=O)NC(CC(=O)O)C(=O)NC(CC(=O)O)C(=O)NC(CC(=O)O)C(=O)O)NC(=O)c2cccc3ccccc23)CC1` (stereo not shown) [Compound 17], the “inhibition of Factor XIII” value in experiment [1] is “no detectable inhibition”. In addition, the “inhibition of TG3” value in experiment [2] is given as “no detectable inhibition”.

For the origin of these results see paper PMC10454375, “Cell-Impermeable Inhibitors Confirm That Intracellular Human Transglutaminase 2 Is Responsible for the Transglutaminase-Associated Cancer Phenotype” (International Journal of Molecular Sciences, 2023).
